Results reported in patent publication US20160263087A1, “NOVEL 4-(INDOL-3-YL)-PYRAZOLE DERIVATIVES, PHARMACEUTICAL COMPOSITIONS AND METHODS FOR USE” (ITEOS THERAPEUTICS, priority 2013, published 2016).

test system: not given; assay: not given; conditions: not given

Row | melting point | SMILES
1 | 94.2 to 95.2 °C | CNCCn1cc(-c2c[nH]c3cc(F)ccc23)cn1 [Compound 24, 2-(4-(6-fluoro-1H-indol-3-yl)-1H-pyrazol-1-yl)-N-methylethanamine]
2 | 170.6 to 171.9 °C | CS(=O)(=O)CCn1cc(-c2c[nH]c3cc(F)c(F)cc23)cn1 [Compound 32, 5,6-difluoro-3-(1-(2-(methylsulfonyl)ethyl)-1H-pyrazol-4-yl)-1H-indole]
3 | 138.9 to 139.6 °C | Fc1ccc2c(-c3cnn(CC4CCOCC4)c3)c[nH]c2c1 [Compound 58, 6-fluoro-3-(1-((tetrahydro-2H-pyran-4-yl)methyl)-1H-pyrazol-4-yl)-1H-indole]
4 | 240.1 to 241.8 °C | Fc1ccc2c(-c3cnn(C4CCNCC4)c3)c[nH]c2c1 [Compound 78, 6-fluoro-3-(1-(piperidin-4-yl)-1H-pyrazol-4-yl)-1H-indole]
5 | 226 to 228 °C | O=C(O)CCC(=O)N1CCC(n2cc(-c3c[nH]c4cc(F)ccc34)cn2)CC1 [Compound 80, 4-(4-(4-(6-fluoro-1H-indol-3-yl)-1H-pyrazol-1-yl)piperidin-1-yl)-4-oxobutanoic acid]
6 | 190.7 to 191.4 °C | O=C(C1CC1)N1CCC(n2cc(-c3c[nH]c4cc(F)ccc34)cn2)CC1 [Compound 88, cyclopropyl(4-(4-(6-fluoro-1H-indol-3-yl)-1H-pyrazol-1-yl)piperidin-1-yl)methanone]

Further lines, the molecule ahead of its results:

Row | SMILES | melting point
7 | CC(Cn1cc(-c2c[nH]c3cc(F)ccc23)cn1)C(N)=O (single isomer, unassigned) [Compound 35, 3-(4-(6-fluoro-1H-indol-3-yl)-1H-pyrazol-1-yl)-2-methylpropanamide] | 184.5 to 185.5 °C
8 | NC(=O)CCn1cc(-c2c[nH]c3cc(F)ccc23)cn1 [Compound 7, 3-(4-(6-fluoro-1H-indol-3-yl)-1H-pyrazol-1-yl)propanamide] | 173.3 to 175 °C
9 | CC(=O)NCCn1cc(-c2c[nH]c3cc(F)ccc23)cn1 [Compound 21, N-(2-(4-(6-fluoro-1H-indol-3-yl)-1H-pyrazol-1-yl)ethyl)acetamide] | 179.5 to 180.8 °C
10 | CS(=O)(=O)CCn1cc(-c2c[nH]c3cc(F)ccc23)cn1 [Compound 31, 6-fluoro-3-(1-(2-(methylsulfonyl)ethyl)-1H-pyrazol-4-yl)-1H-indole] | 153.3 to 155.1 °C
11 | Fc1cc2[nH]cc(-c3cnn(CC4CCNCC4)c3)c2cc1F [Compound 44, 5,6-difluoro-3-(1-(piperidin-4-ylmethyl)-1H-pyrazol-4-yl)-1H-indole] | 167.1 to 168.9 °C
12 | O=S1(=O)CCC(Cn2cc(-c3c[nH]c4cc(F)ccc34)cn2)CC1 [Compound 60, 4-((4-(6-fluoro-1H-indol-3-yl)-1H-pyrazol-1-yl)methyl)tetrahydro-2H-thiopyran 1,1-dioxide] | 193.1 to 194.1 °C
13 | CN(C)CC(=O)N1CCC(n2cc(-c3c[nH]c4cc(F)ccc34)cn2)CC1 [Compound 83, 2-(dimethylamino)-1-(4-(4-(6-fluoro-1H-indol-3-yl)-1H-pyrazol-1-yl)piperidin-1-yl)ethanone] | 193.7 to 196.1 °C
14 | O=C(CO)N1CCC(n2cc(-c3c[nH]c4cc(F)ccc34)cn2)CC1 [Compound 84, 1-(4-(4-(6-fluoro-1H-indol-3-yl)-1H-pyrazol-1-yl)piperidin-1-yl)-2-hydroxyethanone] | 99.9 to 102.1 °C
15 | CC(C)C(=O)N1CCC(n2cc(-c3c[nH]c4cc(F)ccc34)cn2)CC1 [Compound 86, 1-(4-(4-(6-fluoro-1H-indol-3-yl)-1H-pyrazol-1-yl)piperidin-1-yl)-2-methylpropan-1-one] | 210.2 to 211 °C
16 | CC(C)(C)C(=O)N1CCC(n2cc(-c3c[nH]c4cc(F)ccc34)cn2)CC1 [Compound 87, 1-(4-(4-(6-fluoro-1H-indol-3-yl)-1H-pyrazol-1-yl)piperidin-1-yl)-2,2-dimethylpropan-1-one] | 231 to 232 °C

target: human TDO2 (Homo sapiens, UniProt P48775); assay: Assay for TDO2 enzymatic activity determination; format: biochemical; parameters: made in house; conditions: human recombinant TDO2, L-Trp 1 mM, room temperature, one hour, kynurenine absorbance at 480 nm
Description: To measure the TDO2 activity, the reaction mixture contained (final concentrations) potassium phosphate buffer (50 mM, pH 7.5), ascorbic acid (0.25 M), methylene blue (0.125 μM), catalase (40 units/mL, from bovine liver, Sigma), and human recombinant TDO2 enzyme (prepared as described in Dolusic et al. J. Med. Chem.; 2011, 54, 5320-5334; 0.9 μg) without or with the compounds of the present invention at the indicated concentrations (total volume 112.5 μL). The reaction was initiated by the addition of 37.5 μL of L-Trp (final concentration 1 mM) at room temperature. The reaction was conducted at room temperature during one hour and stopped by the addition of 30 μL of 30% (w/v) trichloroacetic acid.
To convert N-formylkynurenine into kynurenine, the reaction mixture was incubated at 65° C. for 30 min. Then 150 μL of the reaction mixture was mixed with 120 μL of 2.5% (w/v) 4-(dimethylamino)-benzaldehyde in acetic acid and incubated for 5 min at room temperature. Kynurenine concentrations were determined by measuring the absorbance at 480 nm. A standard curve was made with pure kynurenine. The TDO activity was measured as described above using ten serial concentrations of the compounds of the present invention. Data were fitted using the Prism software (GraphPad Software, Inc.).

Sequence of human TDO2 (P48775 whole entry): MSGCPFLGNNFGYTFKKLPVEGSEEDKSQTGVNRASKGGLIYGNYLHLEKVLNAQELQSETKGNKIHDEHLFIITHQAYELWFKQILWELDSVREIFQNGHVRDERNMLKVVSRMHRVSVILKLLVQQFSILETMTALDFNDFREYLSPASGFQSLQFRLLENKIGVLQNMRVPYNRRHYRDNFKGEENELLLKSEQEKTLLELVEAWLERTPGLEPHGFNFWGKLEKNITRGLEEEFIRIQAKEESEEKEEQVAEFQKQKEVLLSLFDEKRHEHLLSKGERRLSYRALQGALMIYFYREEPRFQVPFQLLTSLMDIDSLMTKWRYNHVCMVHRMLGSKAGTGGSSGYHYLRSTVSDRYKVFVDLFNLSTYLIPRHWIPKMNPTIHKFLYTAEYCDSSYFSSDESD

Row | IC50 | SMILES
17 | 10 to 100 µM | Cc1nn(CCS(C)(=O)=O)c(C)c1-c1c[nH]c2cc(F)ccc12 [Compound 33, 3-(3,5-dimethyl-1-(2-(methylsulfonyl)ethyl)-1H-pyrazol-4-yl)-6-fluoro-1H-indole]
18 | 10 to 100 µM | Cc1nn(CC2CCNCC2)c(C)c1-c1c[nH]c2cc(F)ccc12 [Compound 55, 3-(3,5-dimethyl-1-(piperidin-4-ylmethyl)-1H-pyrazol-4-yl)-6-fluoro-1H-indole]
19 | 1 to 10 µM | CC(=O)N1CCC(n2ncc(-c3c[nH]c4cc(F)ccc34)c2C)CC1 [Compound 95, 1-(4-(4-(6-fluoro-1H-indol-3-yl)-5-methyl-1H-pyrazol-1-yl)piperidin-1-yl)ethanone]
20 | 1 to 10 µM | COCCS(=O)(=O)N1CCC(n2cc(-c3c[nH]c4cc(F)ccc34)cn2)CC1 [Compound 96, 6-fluoro-3-(1-(1-((2-methoxyethyl)sulfonyl)piperidin-4-yl)-1H-pyrazol-4-yl)-1H-indole]
21 | 1 to 10 µM | CC(C)S(=O)(=O)N1CCC(n2cc(-c3c[nH]c4cc(F)ccc34)cn2)CC1 [Compound 99, 6-fluoro-3-(1-(1-(isopropylsulfonyl)piperidin-4-yl)-1H-pyrazol-4-yl)-1H-indole]

Continued, molecule first:

Row | SMILES | IC50
22 | NC(=O)CCn1cc(-c2c[nH]c3cc(F)c(F)cc23)cn1 [Compound 8, 3-(4-(5,6-difluoro-1H-indol-3-yl)-1H-pyrazol-1-yl)propanamide] | 1 to 10 µM
23 | Cc1nn(CCC(N)=O)c(C)c1-c1c[nH]c2cc(F)ccc12 [Compound 9, 3-(4-(6-fluoro-1H-indol-3-yl)-3,5-dimethyl-1H-pyrazol-1-yl)propanamide] | 1 to 10 µM
24 | Cc1nn(CC2CCNCC2)cc1-c1c[nH]c2cc(F)ccc12 [Compound 56, 6-fluoro-3-(3-methyl-1-(piperidin-4-ylmethyl)-1H-pyrazol-4-yl)-1H-indole] | < 1 µM
25 | Cc1c(-c2c[nH]c3cc(F)ccc23)cnn1CC1CCNCC1 [Compound 57, 6-fluoro-3-(5-methyl-1-(piperidin-4-ylmethyl)-1H-pyrazol-4-yl)-1H-indole] | 1 to 10 µM
26 | O=S(=O)(N1CCC(n2cc(-c3c[nH]c4cc(F)ccc34)cn2)CC1)C(F)(F)F [Compound 92, 6-fluoro-3-(1-(1-((trifluoromethyl)sulfonyl)piperidin-4-yl)-1H-pyrazol-4-yl)-1H-indole] | 1 to 10 µM
27 | CC(=O)N1CCC(n2cc(-c3c[nH]c4cc(F)ccc34)c(C)n2)CC1 [Compound 94, 1-(4-(4-(6-fluoro-1H-indol-3-yl)-3-methyl-1H-pyrazol-1-yl)piperidin-1-yl)ethanone] | 10 to 100 µM
28 | O=S(=O)(C1CC1)N1CCC(n2cc(-c3c[nH]c4cc(F)ccc34)cn2)CC1 [Compound 97, 3-(1-(1-(cyclopropylsulfonyl)piperidin-4-yl)-1H-pyrazol-4-yl)-6-fluoro-1H-indole] | 1 to 10 µM
29 | CCS(=O)(=O)N1CCC(n2cc(-c3c[nH]c4cc(F)ccc34)cn2)CC1 [Compound 98, 3-(1-(1-(ethylsulfonyl)piperidin-4-yl)-1H-pyrazol-4-yl)-6-fluoro-1H-indole] | 1 to 10 µM
30 | C=CC(=O)N1CCC(n2cc(-c3c[nH]c4cc(F)ccc34)cn2)CC1 [Compound 102, 1-(4-(4-(6-fluoro-1H-indol-3-yl)-1H-pyrazol-1-yl)piperidin-1-yl)prop-2-en-1-one] | 1 to 10 µM
